From PubChem BioAssay (NCI)
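Step 1: Grow cells in 96-well plates. Step 2: Expose to compound for 48 hours at 5 concentrations. Step 3: Interpolate endpoints linearly; if unreached, use highest concentration. GI50 = concentration required for 50% inhibition of growth. TGI: concentration producing complete growth inhibition.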

Key:
Experiment in all cases: NCI tumour cell line growth inhibition, 48 h
786-0 renal = system: 786-0 renal
A498 renal = system: A498 renal
A549 NSCLC = system: A549 NSCLC
ACHN renal = system: ACHN renal
BT-549 breast = system: BT-549 breast
CAKI-1 renal = system: CAKI-1 renal
CCRF-CEM leukemia = system: CCRF-CEM leukemia
COLO 205 colon = system: COLO 205 colon
DU-145 prostate = system: DU-145 prostate
EKVX NSCLC = system: EKVX NSCLC
HCC-2998 colon = system: HCC-2998 colon
HCT-116 colon = system: HCT-116 colon
HCT-15 colon = system: HCT-15 colon
HL-60(TB) leukemia = system: HL-60(TB) leukemia
HOP-62 NSCLC = system: HOP-62 NSCLC
HOP-92 NSCLC = system: HOP-92 NSCLC
HT29 colon = system: HT29 colon
IGROV1 ovarian = system: IGROV1 ovarian
K-562 leukemia = system: K-562 leukemia
KM12 colon = system: KM12 colon
LOX IMVI melanoma = system: LOX IMVI melanoma
M14 melanoma = system: M14 melanoma
MALME-3M melanoma = system: MALME-3M melanoma
MCF7 breast = system: MCF7 breast
MDA-MB-231 breast = system: MDA-MB-231 breast
MDA-MB-435 = system: MDA-MB-435
MOLT-4 leukemia = system: MOLT-4 leukemia
NCI-H226 lung = system: NCI-H226 lung
NCI-H23 lung = system: NCI-H23 lung
NCI-H460 lung = system: NCI-H460 lung
NCI-H522 lung = system: NCI-H522 lung
NCI/ADR-RES ovarian = system: NCI/ADR-RES ovarian
OVCAR-3 ovarian = system: OVCAR-3 ovarian
OVCAR-5 ovarian = system: OVCAR-5 ovarian
OVCAR-8 ovarian = system: OVCAR-8 ovarian
RPMI-8226 leukemia = system: RPMI-8226 leukemia
RXF 393 renal = system: RXF 393 renal
SK-MEL-2 melanoma = system: SK-MEL-2 melanoma
SK-MEL-28 melanoma = system: SK-MEL-28 melanoma
SK-MEL-5 melanoma = system: SK-MEL-5 melanoma
SK-OV-3 ovarian = system: SK-OV-3 ovarian
SN12C renal = system: SN12C renal
SNB-19 CNS = system: SNB-19 CNS
SNB-75 CNS = system: SNB-75 CNS
SR leukemia = system: SR leukemia
TK-10 renal = system: TK-10 renal
U251 CNS = system: U251 CNS
UACC-257 melanoma = system: UACC-257 melanoma
UACC-62 melanoma = system: UACC-62 melanoma
UO-31 renal = system: UO-31 renal

## O=C1N=C(c2c(-c3[nH]c(=O)c4ccc(Br)cc4c3O)c(O)c3ccccc3c2O)C(=O)c2cc(Br)ccc21
786-0 renal
  GI50: 360 nM
  TGI: 805 nM
A498 renal
  GI50: 4.4 nM
  TGI: > 16700 nM
A549 NSCLC
  GI50: 577 nM
  TGI: > 16700 nM
ACHN renal
  GI50: 333 nM
  TGI: 908 nM
BT-549 breast
  GI50: 422 nM
  TGI: 1350 nM
CAKI-1 renal
  GI50: 379 nM
  TGI: 1030 nM
CCRF-CEM leukemia
  GI50: 930 nM
  TGI: > 16700 nM
COLO 205 colon
  GI50: > 16700 nM
  TGI: > 16700 nM
DU-145 prostate
  GI50: 427 nM
  TGI: 1110 nM
EKVX NSCLC
  GI50: 353 nM
  TGI: 1530 nM
HCC-2998 colon
  GI50: 347 nM
  TGI: 832 nM
HCT-116 colon
  GI50: 378 nM
  TGI: 1000 nM
HCT-15 colon
  GI50: 306 nM
  TGI: 672 nM
HL-60(TB) leukemia
  GI50: > 16700 nM
  TGI: > 16700 nM
HOP-62 NSCLC
  GI50: 292 nM
  TGI: 660 nM
HOP-92 NSCLC
  GI50: > 16700 nM
  TGI: > 16700 nM
HT29 colon
  GI50: > 8040 nM
  TGI: > 16700 nM
IGROV1 ovarian
  GI50: 493 nM
  TGI: 1410 nM
K-562 leukemia
  GI50: 593 nM
  TGI: > 16700 nM
KM12 colon
  GI50: 566 nM
  TGI: 1970 nM
LOX IMVI melanoma
  GI50: 281 nM
  TGI: 554 nM
M14 melanoma
  GI50: 523 nM
  TGI: 1600 nM
MALME-3M melanoma
  GI50: 367 nM
  TGI: 770 nM
MCF7 breast
  GI50: 335 nM
  TGI: 1210 nM
MDA-MB-231 breast
  GI50: 585 nM
  TGI: > 16700 nM
MDA-MB-435
  GI50: 1030 nM
  TGI: 4740 nM
MOLT-4 leukemia
  GI50: > 3710 nM
  TGI: > 16700 nM
NCI-H226 lung
  GI50: 335 nM
  TGI: 937 nM
NCI-H23 lung
  GI50: 300 nM
  TGI: 785 nM
NCI-H460 lung
  GI50: 417 nM
  TGI: 1020 nM
NCI-H522 lung
  GI50: 359 nM
  TGI: 1110 nM
NCI/ADR-RES ovarian
  GI50: 363 nM
  TGI: 1080 nM
OVCAR-3 ovarian
  GI50: 388 nM
  TGI: 932 nM
OVCAR-5 ovarian
  GI50: > 8370 nM
  TGI: > 16700 nM
OVCAR-8 ovarian
  GI50: 526 nM
  TGI: > 16700 nM
RPMI-8226 leukemia
  GI50: > 3430 nM
  TGI: > 16700 nM
RXF 393 renal
  GI50: 296 nM
  TGI: 646 nM
SK-MEL-2 melanoma
  TGI: > 4940 nM
SK-MEL-28 melanoma
  GI50: 375 nM
  TGI: 926 nM
SK-MEL-5 melanoma
  GI50: 479 nM
  TGI: 1470 nM
SK-OV-3 ovarian
  GI50: 388 nM
  TGI: 1220 nM
SN12C renal
  GI50: 359 nM
  TGI: 790 nM
SNB-19 CNS
  GI50: 611 nM
  TGI: > 16700 nM
SNB-75 CNS
  GI50: 261 nM
  TGI: 537 nM
SR leukemia
  GI50: 944 nM
  TGI: > 16700 nM
TK-10 renal
  GI50: 484 nM
  TGI: 1180 nM
U251 CNS
  GI50: 370 nM
  TGI: 798 nM
UACC-257 melanoma
  GI50: 480 nM
  TGI: 1110 nM
UACC-62 melanoma
  TGI: > 16700 nM
UO-31 renal
  GI50: 287 nM
  TGI: 638 nM
